Experimental findings from US20240067693A1, “POLYPEPTIDES AND USES THEREOF” (MEDIMMUNE LIMITED, priority 2020, published 2024) are described below.

Assay [1] deals with T1, human calcitonin receptor (hCTR) (Homo sapiens, UniProt P30988).
T1 construct: expressed in transfected cells
T1 sequence (P30988 25-474): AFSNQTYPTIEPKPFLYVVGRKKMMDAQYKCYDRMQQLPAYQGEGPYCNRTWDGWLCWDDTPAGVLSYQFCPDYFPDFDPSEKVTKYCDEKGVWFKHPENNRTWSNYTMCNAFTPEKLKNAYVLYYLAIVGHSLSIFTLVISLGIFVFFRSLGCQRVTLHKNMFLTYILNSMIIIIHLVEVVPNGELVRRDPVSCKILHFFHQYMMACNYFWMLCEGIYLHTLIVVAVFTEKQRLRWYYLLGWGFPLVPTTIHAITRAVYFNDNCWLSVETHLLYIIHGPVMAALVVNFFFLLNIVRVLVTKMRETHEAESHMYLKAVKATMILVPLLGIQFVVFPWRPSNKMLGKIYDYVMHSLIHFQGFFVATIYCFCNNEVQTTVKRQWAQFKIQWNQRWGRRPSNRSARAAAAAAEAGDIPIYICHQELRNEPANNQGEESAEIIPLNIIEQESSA
The assay can be described thus: cAMP production in 1321N1 cells with stable recombinant expression of human calcitonin receptor (hCTR). It counts as cell-based. As to conditions: cAMP, 1321N1 cells, assay buffer with 0.1% BSA; read-out: EC50 (pM) hCTR. Put shortly: (§1)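 Receptor-expressing cells (human receptors in 1321N1, rat receptors in HEK) incubated 30 min at room temperature with peptide in HBSS/HEPES pH 7.4, 0.1% BSA, 0.5 mM IBMX. cAMP read by HTRF; EC50 from 4-parameter fit as % of maximal amylin or calcitonin response.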
(Cyclic AMP is a second messenger, typically raised through Gs and lowered through Gi signalling.)

In assay [2] the target is T2, human amylin receptor (calcitonin receptor co-expressed with receptor activity modifying protein, RAMP3) (hAMYR3) (Homo sapiens, UniProt O60896+P30988).
T2 construct: expressed in transfected cells
T2 sequence (P30988 25-474): T1 sequence (P30988 25-474)
T2 sequence (O60896 24-148 partner): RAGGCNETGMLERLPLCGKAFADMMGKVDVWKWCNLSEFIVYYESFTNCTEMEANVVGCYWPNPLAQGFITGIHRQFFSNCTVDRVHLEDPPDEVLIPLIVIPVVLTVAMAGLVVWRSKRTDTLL
The assay can be described thus: cAMP production in 1321N1 cells with stable recombinant expression of human amylin receptor (hAMYR3). It counts as cell-based. As to conditions: for Ratio (selectivity hAMYR vs hCTR, ratio of EC50 values at the two receptors): EC50 hCTR / EC50 hAMYR3; for EC50: cAMP, 1321N1 cells, assay buffer with 0.1% BSA, read-out: EC50 (pM) hAMYR3. The essentials: as §1

Structures are written as SMILES. Numbered stars: 1 amine (or outer) side, 2 acyl side, 3 side chain; on linkers, the order of the positions; unused ones are H or OH. Bridge positions count the residues as written; N and C are the ends. Square brackets hold non-standard residues; d marks the D form. Side chains are listed from the residue outwards. Peptide text beside a SMILES is read from it. * marks the point of attachment. C20 diacid = O=C(O)CCCCCCCCCCCCCCCCCCC(=O)*; C18 diacid = O=C(O)CCCCCCCCCCCCCCCCC(=O)*; γGlu = O=C(O)[C@H](CCC(=O)[*:2])N[*:1]; Dab = NCC[C@H](N)C(=O)O; Aib = CC(C)(N)C(=O)O

What is called EC50 is the concentration that produces a half-maximal response. Take `CC[C@H](C)[C@H](NC(=O)[C@H](C)NC(=O)[C@@H]1CCCN1C(=O)[C@H](Cc1ccccc1)NC(=O)[C@H](CC(N)=O)NC(=O)C(C)(C)NC(=O)[C@H](CO)NC(=O)[C@H](CO)NC(=O)[C@H](Cc1c[nH]cn1)NC(=O)[C@@H](NC(=O)[C@H](CC(C)C)NC(=O)[C@H](Cc1ccccc1)NC(=O)[C@H](CC(N)=O)NC(=O)[C@H](C)NC(=O)[C@H](CC(C)C)NC(=O)[C@H](CCCNC(=N)N)NC(=O)[C@H](CCC(N)=O)NC(=O)[C@@H](NC(=O)[C@H](C)NC(=O)[C@@H]1CSSC[C@H](NC(=O)[C@@H](N)CCCCNC(=O)CC[C@H](NC(=O)CC[C@H](NC(=O)CCCCCCCCCCCCCCCCC(=O)O)C(=O)O)C(=O)O)C(=O)N[C@@H](CC(N)=O)C(=O)N[C@@H]([C@@H](C)O)C(=O)N[C@@H](C)C(=O)N[C@@H]([C@@H](C)O)C(=O)N1)[C@@H](C)O)C(C)C)C(=O)N[C@@H](CC(C)C)C(=O)N[C@@H](CO)C(=O)N1CCC[C@H]1C(=O)N[C@H](C(=O)N[C@@H](CCN)C(=O)N[C@H](C(=O)NCC(=O)N[C@@H](CO)C(=O)N[C@@H](CC(N)=O)C(=O)N[C@H](C(=O)N[C@@H](Cc1ccc(O)cc1)C(N)=O)[C@@H](C)O)C(C)C)[C@@H](C)O` [Peptide 122, K(γE-γE-C18diacid)[CNTATC]ATQRLANFLVHSS(Aib)NFPAILSPT(Dab)VGSNTY-amide] (H-K([γGlu-γGlu-C18 diacid])CNTATCATQRLANFLVHSS[Aib]NFPAILSPT[Dab]VGSNTY-NH2; disulfide 2-7): the concentration giving a half-maximal response (EC50) in assay [1] came out at 6180 pM. In assay [2], the “Ratio (selectivity hAMYR vs hCTR, ratio of EC50 values at the two receptors)” value was 9 and the EC50 was 655 pM.

On to `CC[C@H](C)[C@H](NC(=O)[C@H](C)NC(=O)[C@@H]1CCCN1C(=O)[C@H](Cc1ccccc1)NC(=O)[C@H](CC(N)=O)NC(=O)C(C)(C)NC(=O)[C@H](CO)NC(=O)[C@H](CO)NC(=O)[C@H](Cc1c[nH]cn1)NC(=O)[C@@H](NC(=O)[C@H](CC(C)C)NC(=O)[C@H](Cc1ccccc1)NC(=O)[C@H](CC(N)=O)NC(=O)[C@H](C)NC(=O)[C@H](CC(C)C)NC(=O)[C@H](CCCNC(=N)N)NC(=O)[C@H](CCC(N)=O)NC(=O)[C@@H](NC(=O)[C@H](C)NC(=O)[C@@H]1CSSC[C@H](NC(=O)[C@@H](N)CCCCNC(=O)CC[C@H](NC(=O)CC[C@H](NC(=O)CCCCCCCCCCCCCCCCCCC(=O)O)C(=O)O)C(=O)O)C(=O)N[C@@H](CC(N)=O)C(=O)N[C@@H]([C@@H](C)O)C(=O)N[C@@H](C)C(=O)N[C@@H]([C@@H](C)O)C(=O)N1)[C@@H](C)O)C(C)C)C(=O)N[C@@H](CC(C)C)C(=O)N[C@@H](CO)C(=O)N1CCC[C@H]1C(=O)N[C@H](C(=O)N[C@@H](CCN)C(=O)N[C@H](C(=O)NCC(=O)N[C@@H](CO)C(=O)N[C@@H](CC(N)=O)C(=O)N[C@H](C(=O)N[C@@H](Cc1ccc(O)cc1)C(N)=O)[C@@H](C)O)C(C)C)[C@@H](C)O` [Peptide 123, K(γE-γE-C20diacid)[CNTATC]ATQRLANFLVHSS(Aib)NFPAILSPT(Dab)VGSNTY-amide] (H-K([γGlu-γGlu-C20 diacid])CNTATCATQRLANFLVHSS[Aib]NFPAILSPT[Dab]VGSNTY-NH2; disulfide 2-7; N-terminus assumed), for which the concentration for a half-maximal effect (EC50) in assay [1] was 4790 pM. In assay [2], the “Ratio (selectivity hAMYR vs hCTR, ratio of EC50 values at the two receptors)” value is 5 and the EC50 came out at 873 pM.

As to `CC[C@H](C)[C@H](NC(=O)[C@H](C)NC(=O)[C@@H]1CCCN1C(=O)[C@H](Cc1ccccc1)NC(=O)[C@H](CC(N)=O)NC(=O)C(C)(C)NC(=O)[C@H](CO)NC(=O)[C@H](CO)NC(=O)[C@H](Cc1c[nH]cn1)NC(=O)[C@@H](NC(=O)[C@H](CC(C)C)NC(=O)[C@H](Cc1ccccc1)NC(=O)[C@H](CC(N)=O)NC(=O)[C@H](C)NC(=O)[C@H](CC(C)C)NC(=O)[C@H](CCCNC(=N)N)NC(=O)[C@H](CCC(N)=O)NC(=O)[C@@H](NC(=O)[C@H](C)NC(=O)[C@@H]1CSSC[C@H](NC(=O)[C@@H](N)CCCCNC(=O)CC[C@H](NC(=O)CC[C@H](NC(=O)CCCCCCCCCCCCCCCCC(=O)O)C(=O)O)C(=O)O)C(=O)N[C@@H](CC(N)=O)C(=O)N[C@@H]([C@@H](C)O)C(=O)N[C@@H](C)C(=O)N[C@@H]([C@@H](C)O)C(=O)N1)[C@@H](C)O)C(C)C)C(=O)N[C@@H](CC(C)C)C(=O)N[C@@H](CO)C(=O)N1CCC[C@H]1C(=O)N[C@H](C(=O)N[C@@H](CC(N)=O)C(=O)N[C@H](C(=O)NCC(=O)N[C@@H](CO)C(=O)N[C@@H](CCN)C(=O)N[C@H](C(=O)N[C@@H](Cc1ccc(O)cc1)C(N)=O)[C@@H](C)O)C(C)C)[C@@H](C)O` [Peptide 124, K(γE-γE-C18diacid)[CNTATC]ATQRLANFLVHSS(Aib)NFPAILSPTNVGS(Dab)TY-amide] (H-K([γGlu-γGlu-C18 diacid])CNTATCATQRLANFLVHSS[Aib]NFPAILSPTNVGS[Dab]TY-NH2; disulfide 2-7; N-terminus assumed), the EC50 in assay [1] was determined as 6630 pM. Moreover, in assay [2], the “Ratio (selectivity hAMYR vs hCTR, ratio of EC50 values at the two receptors)” value is on record as 6 and the EC50 came out at 1130 pM.

For `CC[C@H](C)[C@H](NC(=O)[C@H](C)NC(=O)[C@@H]1CCCN1C(=O)[C@H](Cc1ccccc1)NC(=O)[C@H](CC(N)=O)NC(=O)C(C)(C)NC(=O)[C@H](CO)NC(=O)[C@H](CO)NC(=O)[C@H](Cc1c[nH]cn1)NC(=O)[C@@H](NC(=O)[C@H](CC(C)C)NC(=O)[C@H](Cc1ccccc1)NC(=O)[C@H](CC(N)=O)NC(=O)[C@H](C)NC(=O)[C@H](CC(C)C)NC(=O)[C@H](CCCNC(=N)N)NC(=O)[C@H](CCC(N)=O)NC(=O)[C@@H](NC(=O)[C@H](C)NC(=O)[C@@H]1CSSC[C@H](NC(=O)[C@@H](N)CCCCNC(=O)CC[C@H](NC(=O)CC[C@H](NC(=O)CCCCCCCCCCCCCCCCCCC(=O)O)C(=O)O)C(=O)O)C(=O)N[C@@H](CC(N)=O)C(=O)N[C@@H]([C@@H](C)O)C(=O)N[C@@H](C)C(=O)N[C@@H]([C@@H](C)O)C(=O)N1)[C@@H](C)O)C(C)C)C(=O)N[C@@H](CC(C)C)C(=O)N[C@@H](CO)C(=O)N1CCC[C@H]1C(=O)N[C@H](C(=O)N[C@@H](CC(N)=O)C(=O)N[C@H](C(=O)NCC(=O)N[C@@H](CO)C(=O)N[C@@H](CCN)C(=O)N[C@H](C(=O)N[C@@H](Cc1ccc(O)cc1)C(N)=O)[C@@H](C)O)C(C)C)[C@@H](C)O` [Peptide 125, K(γE-γE-C20diacid)[CNTATC]ATQRLANFLVHSS(Aib)NFPAILSPTNVGS(Dab)TY-amide] (H-K([γGlu-γGlu-C20 diacid])CNTATCATQRLANFLVHSS[Aib]NFPAILSPTNVGS[Dab]TY-NH2; disulfide 2-7; N-terminus assumed), the EC50 in assay [1] came to 10200 pM. Besides, the “Ratio (selectivity hAMYR vs hCTR, ratio of EC50 values at the two receptors)” value in assay [2] stood at 8.

As for `CC[C@H](C)[C@H](NC(=O)[C@@H]1CCCN1C(=O)CNC(=O)[C@H](Cc1ccccc1)NC(=O)[C@H](CC(N)=O)NC(=O)[C@H](CCN)NC(=O)[C@H](CO)NC(=O)[C@H](CO)NC(=O)[C@H](Cc1c[nH]cn1)NC(=O)C(C)(C)NC(=O)[C@H](CC(C)C)NC(=O)[C@H](Cc1ccccc1)NC(=O)[C@H](CC(N)=O)NC(=O)[C@H](C)NC(=O)[C@H](CC(C)C)NC(=O)[C@H](CCCNC(=N)N)NC(=O)[C@H](CCC(N)=O)NC(=O)[C@@H](NC(=O)[C@H](C)NC(=O)[C@@H]1CSSC[C@H](NC(=O)[C@H](CCCCN)NC(=O)[C@@H](N)CCCCNC(=O)CC[C@H](NC(=O)CCCCCCCCCCCCCCCCC(=O)O)C(=O)O)C(=O)N[C@@H](CC(N)=O)C(=O)N[C@@H]([C@@H](C)O)C(=O)N[C@@H](C)C(=O)N[C@@H]([C@@H](C)O)C(=O)N1)[C@@H](C)O)C(=O)N[C@@H](CC(C)C)C(=O)N1CCC[C@H]1C(=O)N1CCC[C@H]1C(=O)N[C@H](C(=O)N[C@@H](CC(N)=O)C(=O)N[C@H](C(=O)NCC(=O)N[C@@H](CO)C(=O)N[C@@H](CC(N)=O)C(=O)N[C@H](C(=O)N[C@@H](Cc1ccc(O)cc1)C(N)=O)[C@@H](C)O)C(C)C)[C@@H](C)O` [Peptide 126, K(γE-C18diacid)K[CNTATC]ATQRLANFL(Aib)HSS(Dab)NFGPILPPTNVGSNTY-amide] (H-K([γGlu-C18 diacid])KCNTATCATQRLANFL[Aib]HSS[Dab]NFGPILPPTNVGSNTY-NH2; disulfide 3-8), the half-maximal effective concentration (EC50) in assay [1] came out at 8450 pM. Further, in assay [2], the “Ratio (selectivity hAMYR vs hCTR, ratio of EC50 values at the two receptors)” value was found to be 19 and the EC50 worked out at 445 pM.
